The target of assay [1] is T1, Fibroblast growth factor 2 (Homo sapiens, UniProt P09038). Briefly: 23% inhibition of FGF-2 binding to heparin-albumin by ELISA. In general terms: An ELISA detects its analyte on a solid surface through an enzyme-linked reagent.
Assay [2] concerns the target T1, Fibroblast growth factor 2. Briefly: Inhibition of Fibroblast growth factor 2 binding to heparin-albumin in ELISA.
Assay [3] addresses T1, Fibroblast growth factor 2. Briefly: 25% inhibition of FGF-2 binding to heparin-albumin by ELISA.
Assay [4] addresses T1, Fibroblast growth factor 2. Briefly: 24% inhibition of FGF-2 binding to heparin-albumin by ELISA.

Where “and” joins values, the source holds several entries; their conditions need not be identical. Identical values can stand only once.

As usually defined, the IC50 is the concentration needed to halve the response being measured. Read a low IC50 as higher potency.

T1 sequence (P09038 143-288 limits assumed): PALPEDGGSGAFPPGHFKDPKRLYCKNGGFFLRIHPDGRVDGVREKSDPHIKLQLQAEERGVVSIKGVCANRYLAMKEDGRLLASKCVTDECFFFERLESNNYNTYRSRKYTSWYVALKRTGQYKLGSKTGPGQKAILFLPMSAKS

In assay [1], `COc1cc(C(=O)NC2OC(C(=O)O)C(O)C(O)C2O)cc(OC)c1OC` (stereo not given) showed an IC50 of 150 nM. For the same molecule, the Imax in assay [2] turned out to be 23%.
In assay [2], `O=C(NC1OC(C(=O)O)C(O)C(O)C1O)c1cccs1` (stereo not given) yielded an Imax of 40%.
Still for that read-out and setting: next, `O=C(NC1OC(C(=O)O)C(O)C(O)C1O)c1ccncc1` (stereo not given): 45%.
`O=C(O)[C@@H]1O[C@@H](OCCN2C(=O)CCC2=O)[C@@H](O)[C@@H](O)[C@@H]1O`: the half-inhibitory concentration (IC50) in assay [3] is < 313 nM and 340 nM. This molecule also had an Imax in assay [2] of 25%.
The molecule `O=C(COc1ccc(Cl)cc1Cl)NC1OC(C(=O)O)C(O)C(O)C1O` (stereo not given) gave an IC50 in assay [4] of 25.2 nM. Further, the Imax in assay [2] was 24%.
On to `O=C(NC1OC(C(=O)O)C(O)C(O)C1O)c1ccc(F)c(F)c1` (stereo not given), for which the half-inhibitory concentration (IC50) in assay [3] was 33000 nM. The molecule further gave an Imax in assay [2] of 39%.

The record behind these values is ChEMBL document CHEMBL1134967, “Identification of novel inhibitors of fibroblast growth factor (FGF-2) binding to heparin and endothelial cell survival from a structurally diverse carbohybrid library” (Bioorg Med Chem Lett, 2002).
